Measurements reported in US7357835B2, “Production of crystalline materials by using high intensity ultrasound” (Accentus PLC, priority 2002, dated 2008).

How the values were obtained:
[1] = Effect of ultrasound on crystallisation of aqueous D-xylose solution cooled at 0.2 K/min; format: physicochemical; conditions: for temperature T at which solid first appeared: solution saturated at 50° C.
Source text: Referring to the drawing, a batch crystallisation irradiator 10 includes a stainless-steel vessel 12 of internal diameter 0.31 m and of wall thickness 2 mm. To the outside of the wall are attached sixty transducer modules 14 closely packed in a square array. Each transducer module 14 comprises a 50 W piezoelectric transducer 16 which resonates at 20 kHz, attached to a conically flared titanium coupling block 18 by which it is connected to the wall, the wider end of each block being of diameter 63 mm. The transducer modules define five circumferential rings each of twelve modules 14, the centres of the coupling blocks 18 being on a square pitch of 82 mm. The irradiator 10 also incorporates three signal generators 20 (only one is shown) each of which drives the transducers 16 in a pair of adjacent longitudinal rows and another such pair of rows one third of the circumference apart from the first pair.
Consequently the solution will become saturated and then supersaturated. When the temperature is about 10° C. below that at which saturation occurs, the transducers are energized briefly, each generator 20 being energized for 0.8 s successively. Each transducer irradiates 50 W over a circle of diameter 63 mm, that is an intensity of 1.6 W/cm^2. The ultrasonic energy is dissipated over the cylindrical volume of the vessel 12, which is about 31 litres, so if all the transducers 16 were energised simultaneously the power density would be about 100 W/litre. To avoid focusing, only one signal generator 20 is energized at any one time, so the energy deposition is about 33 W/litre. After 0.8 s, a different generator 20 is energized, and so on. After 2.4 s each transducer has been energized, and application of ultrasound is terminated. The contents of the vessel 12 are then inspected, to see if any crystals have formed. If there are no crystals this activation procedure is repeated.
When they are activated, the signal generators 20 generate signals at a frequency that varies between 19.5 and 20.5 kHz, the signals from different signal generators 20 varying independently of each other. The frequency of each signal generator 20 varies sinusoidally with time between those frequency limits, at a frequency of 10 Hz.
(§1) An experiment to investigate the effect of ultrasound on crystallisation has been performed, as follows. An aqueous solution of D-xylose containing 25 g D-xylose per 10 ml water was prepared, which would be saturated at 50° C. This was than cooled at a rate of 0.2 K/min to 20° C., and the resulting solid products were separated and isolated. […] If the transducers 14 were energized for a period of 2 minutes, starting at 46° C., then crystals appeared at 43° C. If the transducers 14 were energized continuously, starting at 50° C., then the resulting crystals were very small, and information on sizes was not obtained.

[2] = Saturation of aqueous D-xylose solution; format: physicochemical; conditions: saturated at 50° C.
Method: as §1

- crystal size at 10% cumulative percentile (by mass) ([1]; 2 min ultrasound): 43 microns
- crystal size at 50% cumulative percentile (by mass) ([1]; 2 min ultrasound): 106 microns
- crystal size at 90% cumulative percentile (by mass) ([1]; 2 min ultrasound): 211 microns
- temperature T at which solid first appeared ([1]; 2 min ultrasound starting at 46° C., cooled 0.2 K/min): 43 °C
- metastable zone width ([1]; absence of ultrasound): about 14 K
- metastable zone width ([1]; continuous application of ultrasound): about 4 K
- temperature T at which solid first appeared ([1]; continuous ultrasound starting at 50° C., cooled 0.2 K/min): 46 °C
- crystal size at 10% cumulative percentile (by mass) ([1]; no ultrasound): 27 microns
- crystal size at 50% cumulative percentile (by mass) ([1]; no ultrasound): 67 microns
- crystal size at 90% cumulative percentile (by mass) ([1]; no ultrasound): 149 microns
- temperature T at which solid first appeared ([1]; no ultrasound (control), cooled 0.2 K/min to 20° C.): 36 °C
- metastable zone width ([1]; short application of ultrasound): about 7 K
- concentration of saturated aqueous solution [2]: 25 g per 10 ml water
Structure (SMILES): O=C[C@H](O)[C@@H](O)[C@H](O)CO [D-xylose]
